From patent US9309247B2, “2-substituted imidazo[4,5-D]phenanthroline derivatives and their use in the treatment of cancer” (Aptose Biosciences Inc., priority 2013, dated 2016)

Key:
[1] = system: human Burkitt's lymphoma Ramos cells; assay: Cell growth inhibition assay, Ramos; assay type: cell-based; settings: five days of incubation, XTT; read-out: IC50 Ramos (hs)
Protocol: (§1) In this study, compounds 1-8 were screened in vitro against a panel of four mouse lymphoma cell lines and two human lymphoma cell line for cell growth inhibition activity. Following treatment, half maximal inhibitory concentrations (IC50) were determined with the objective of selecting the most efficacious compounds for evaluation of in vitro absorption, distribution, metabolism, and excretion (ADME) screening.
(§2) Similarly, human Burkitt's lymphoma Ramos cells (ATCC CRL-1596) were grown in suspension in Roswell Park Memorial Institute (RPMI) 1640 medium supplemented with 10% fetal bovine serum (FBS), 10 mM HEPES KOH pH 7.4, and 2 mM sodium pyruvate. Mouse P388D1 (ATCC CCL-46) and WR19L (ATCC TIB-52) cells were grown in suspension in Dulbecco's Modified Eagle Medium (DMEM) with 10% fetal bovine serum (FBS), 10 mM HEPES, and 2 mM sodium pyruvate. Mouse WEHI231 (ATCC CRL-1702) and EL4 (ATCC TIB-39) cells were grown in suspension in DMEM with 10% fetal bovine serum (FBS), 10 mM HEPES KOH pH 7.4, 2 mM sodium pyruvate, and 0.05 mM β-mercaptoethanol. All cells were maintained at 37° C. in an atmosphere of 5% CO2 in air. Logarithmically growing cells were routinely sub-cultured twice weekly. Briefly, cells were collected by centrifugation, resuspended in pre-warmed media, and diluted 1:10 into a 75 cm^2 flask.
(§3) Cells were subcultured and 4×10^3 cells (in 50 μL) were transferred to each well in a Falcon 96-well tissue culture plate. Exemplary compounds were dissolved in pure dimethyl sulphoxide (DMSO) at a concentration of 10 mM. From this 10 mM stock solution, 12 successive serial dilutions were made in DMSO (2.5 fold dilutions), ranging from 0.52 μM to 10 mM. Using these stock dilutions, 5 μL of each were added to 500 μL of media, and 50 μL of this was added to the cells. The final concentrations being tested ranged from 0.0026 μM to 50 μM. Each concentration was tested in triplicate, and DMSO and untreated cells were also included as controls. After five days of incubation with the compounds, cell viability was determined using the XTT cell proliferation kit (Roche, Cat. No. 11 465 015 001). Following the XTT protocol, 4.5-24 hours after addition of the reagent, the plates were read in a μQuant 96-well plate spectrophotometer (Biotek Instruments Inc.) and the results analyzed to determine the IC50.

[2] = system: pancreatic cancer (BxPC-3); assay: Pancreatic cancer (BxPC-3) xenograft model; assay type: in vivo, CD-1 female nude mice; settings: pancreatic carcinoma BxPC-3; vs vehicle-treated control; FIG. 5
Protocol: The ability of compound 1 to inhibit colon tumour growth in vivo was tested as follows. CD-1 female nude mice (7 mice per treatment group, 6-7 weeks) were injected […] with human colon adenocarcinoma cells HT-29 cells (3×10^6 cells in 0.1 ml PBS). Treatment of the mice with vehicle or 50 mg/kg/d of […] was initiated 5 days post-inoculation (size of tumours=20-40 mm^3) for 7-day cycles of five days followed by a 2 day break for 5 weeks. The size of the tumours was measured over the course of the experiment using calipers, and the weight of the tumours was measured after the animals were sacrificed.
The ability of compound 1 to inhibit renal cell carcinoma growth (see FIG. 4), to inhibit pancreatic carcinoma growth (FIG. 5), to inhibit large-cell lung carcinoma cell growth (FIG. 6), and to inhibit Glioblastoma cell growth (FIG. 7) was also tested following the general procedure as discussed above.

[3] = system: Human Burkitt's lymphoma Raji cells; assay: Cell growth inhibition assay, Raji; assay type: cell-based; settings: five days of incubation, XTT; read-out: IC50 Raji (hs)
Protocol: as §1
Human Burkitt's lymphoma Raji cells (ATCC CCL-86) were grown in suspension in Roswell Park Memorial Institute (RPMI) 1640 medium supplemented with 10% fetal bovine serum (FBS), 10 mM HEPES KOH pH 7.4, and 2 mM sodium pyruvate at 37° C. in an atmosphere of 5% CO2 in air. Logarithmically growing cells were routinely sub-cultured twice weekly. Briefly, cells were collected by centrifugation, resuspended in pre-warmed media, and diluted 1:10 into a 75 cm^2 flask.
as §3

[4] = system: WEHI 231 (mouse, B-cell lymphoma); assay: Cell growth inhibition assay, WEHI231; assay type: cell-based; settings: five days of incubation, XTT; read-out: IC50 WEHI231 (ms)
Protocol: as §1, §2, §3

SMILES: FC1(F)Oc2ccc(-c3nc4c5cccnc5c5ncccc5c4[nH]3)cc2O1 [Compound 1]
- IC50 [1]: 163 nM
- inhibition of tumour growth, as measured by tumour size [2]: able to inhibit tumour growth
- IC50 [3]: 153 nM
- IC50 [4]: 5.2 nM
